According to ChEMBL document CHEMBL3885881, “DrugMatrix”:

Organism: Rattus norvegicus
Assay: DrugMatrix - Regimen: Daily Repeat
Type: toxicity, organism-based, Sprague-Dawley
Set-up: regimen Daily Repeat, gender Male, age 6-8 weeks
Conditions: in vivo, iv, vehicle 100 % SALINE; for ABSOLUTE BASOPHIL / ABSOLUTE EOSINOPHIL / ABSOLUTE LYMPHOCYTE / ABSOLUTE MONOCYTE / ABSOLUTE SEGMENTED NEUTROPHIL / BASOPHIL / EOSINOPHIL / ERYTHROCYTE COUNT / HEMATOCRIT / HEMOGLOBIN / LEUKOCYTE COUNT / LYMPHOCYTE / MEAN CORPUSCULAR HEMOGLOBIN / MEAN CORPUSCULAR HEMOGLOBIN CONCENTRATION / MEAN CORPUSCULAR VOLUME / MONOCYTE / NEUTROPHIL / NUCLEATED RED BLOOD CELLS / PLATELET COUNT: tissue Blood; for ALANINE AMINOTRANSFERASE / ALBUMIN / ALKALINE PHOSPHATASE / ASPARTATE AMINOTRANSFERASE / BLOOD UREA NITROGEN / CARBON DIOXIDE / CHLORIDE / CHOLESTEROL / CREATINE PHOSPHOKINASE / CREATININE / GLUCOSE / LACTATE DEHYDROGENASE / LIPASE / PHOSPHORUS / POTASSIUM / SODIUM / TOTAL BILIRUBIN / TOTAL PROTEIN / URIC ACID: tissue Plasma
[1] = 0 mg/kg, 72 h, dose level Control, time 3 day
[2] = 0 mg/kg, 120 h, dose level Control, time 5 day
[3] = 10 mg/kg, 72 h, dose level Low, time 3 day

With O=C(O)P(=O)(O)O [FOSCARNET] the “ABSOLUTE BASOPHIL” value [1] was 0 CELLS/uL, the “ABSOLUTE EOSINOPHIL” value [1] was 247.67 CELLS/uL and the “ABSOLUTE LYMPHOCYTE” value [1] was 13190.83 CELLS/uL. For the same compound, the “ABSOLUTE MONOCYTE” value [1] was 307.67 CELLS/uL, the “ABSOLUTE SEGMENTED NEUTROPHIL” value [1] was 1220.5 CELLS/uL and the BASOPHIL [1] was 0%. For the same compound, the EOSINOPHIL [1] was 1.67%, the “ERYTHROCYTE COUNT” value [1] was 5.47 x10E6/uL and the HEMATOCRIT [1] was 33.98%. The HEMOGLOBIN [1] was 12.65 G/DL, the “LEUKOCYTE COUNT” value [1] was 14.97 x10E3/uL and the LYMPHOCYTE [1] was 88.17%. The “MEAN CORPUSCULAR HEMOGLOBIN” value [1] was 23.17 pg, the “MEAN CORPUSCULAR HEMOGLOBIN CONCENTRATION” value [1] was 37.23 G/DL and the “MEAN CORPUSCULAR VOLUME” value [1] was 62.25 fL. For the same compound, the MONOCYTE [1] was 2%, the NEUTROPHIL [1] was 8.17% and the “NUCLEATED RED BLOOD CELLS” value [1] was 0 /100WBC. The “PLATELET COUNT” value [1] was 1307.17 x10E3/uL, the “ALANINE AMINOTRANSFERASE” value [1] was 39.67 u/L and the ALBUMIN [1] was 4.08 G/DL. The “ALKALINE PHOSPHATASE” value [1] was 383.17 u/L, the “ASPARTATE AMINOTRANSFERASE” value [1] was 88.83 u/L and the “BLOOD UREA NITROGEN” value [1] was 18.5 mg/dL. For the same compound, the “CARBON DIOXIDE” value [1] was 27.5 mmol/L, the CHLORIDE [1] was 103 MEQ/L and the CHOLESTEROL [1] was 67.33 mg/dL. For the same compound, the “CREATINE PHOSPHOKINASE” value [1] was 414.67 u/L, the CREATININE [1] was 0.19 mg/dL and the GLUCOSE [1] was 149.33 mg/dL. The “LACTATE DEHYDROGENASE” value [1] was 536.83 u/L, the LIPASE [1] was 8.83 u/L and the PHOSPHORUS [1] was 11.13 mg/dL. The POTASSIUM [1] was 6.23 MEQ/L, the SODIUM [1] was 144.42 MEQ/L and the “TOTAL BILIRUBIN” value [1] was 0.18 mg/dL. For the same compound, the “TOTAL PROTEIN” value [1] was 5.57 G/DL, the “URIC ACID” value [1] was 1.23 mg/dL and the “ABSOLUTE BASOPHIL” value [2] was 0 CELLS/uL. The “ABSOLUTE EOSINOPHIL” value [2] was 158.83 CELLS/uL, the “ABSOLUTE LYMPHOCYTE” value [2] was 13517.17 CELLS/uL and the “ABSOLUTE MONOCYTE” value [2] was 352.67 CELLS/uL. The “ABSOLUTE SEGMENTED NEUTROPHIL” value [2] was 1104.67 CELLS/uL, the BASOPHIL [2] was 0% and the EOSINOPHIL [2] was 1%. For the same compound, the “ERYTHROCYTE COUNT” value [2] was 5.73 x10E6/uL, the HEMATOCRIT [2] was 36.85% and the HEMOGLOBIN [2] was 13.67 G/DL. The “LEUKOCYTE COUNT” value [2] was 15.13 x10E3/uL, the LYMPHOCYTE [2] was 89.5% and the “MEAN CORPUSCULAR HEMOGLOBIN” value [2] was 23.87 pg. The “MEAN CORPUSCULAR HEMOGLOBIN CONCENTRATION” value [2] was 37.1 G/DL, the “MEAN CORPUSCULAR VOLUME” value [2] was 64.33 fL and the MONOCYTE [2] was 2.33%. The NEUTROPHIL [2] was 7.17%, the “NUCLEATED RED BLOOD CELLS” value [2] was 0.17 /100WBC and the “PLATELET COUNT” value [2] was 1266 x10E3/uL. For the same compound, the “ALANINE AMINOTRANSFERASE” value [2] was 49.17 u/L, the ALBUMIN [2] was 4.22 G/DL and the “ALKALINE PHOSPHATASE” value [2] was 352.67 u/L. For the same compound, the “ASPARTATE AMINOTRANSFERASE” value [2] was 95.17 u/L, the “BLOOD UREA NITROGEN” value [2] was 18.83 mg/dL and the “CARBON DIOXIDE” value [2] was 25.67 mmol/L. For the same compound, the CHLORIDE [2] was 102.67 MEQ/L, the CHOLESTEROL [2] was 66.83 mg/dL and the “CREATINE PHOSPHOKINASE” value [2] was 550.33 u/L. For the same compound, the CREATININE [2] was 0.23 mg/dL, the GLUCOSE [2] was 186.17 mg/dL and the “LACTATE DEHYDROGENASE” value [2] was 471.33 u/L. The LIPASE [2] was 8.67 u/L, the PHOSPHORUS [2] was 12.3 mg/dL and the POTASSIUM [2] was 6.35 MEQ/L. The SODIUM [2] was 143.57 MEQ/L, the “TOTAL BILIRUBIN” value [2] was 0.18 mg/dL and the “TOTAL PROTEIN” value [2] was 6.05 G/DL. For the same compound, the “URIC ACID” value [2] was 2 mg/dL, the “ABSOLUTE BASOPHIL” value [3] was 0 CELLS/uL and the “ABSOLUTE EOSINOPHIL” value [3] was 119 CELLS/uL. The “ABSOLUTE LYMPHOCYTE” value [3] was 13526 CELLS/uL, the “ABSOLUTE MONOCYTE” value [3] was 339.33 CELLS/uL and the “ABSOLUTE SEGMENTED NEUTROPHIL” value [3] was 1849 CELLS/uL. The BASOPHIL [3] was 0%, the EOSINOPHIL [3] was 1% and the “ERYTHROCYTE COUNT” value [3] was 5.59 x10E6/uL. The HEMATOCRIT [3] was 35.27%, the HEMOGLOBIN [3] was 13.4 G/DL and the “LEUKOCYTE COUNT” value [3] was 15.83 x10E3/uL. For the same compound, the LYMPHOCYTE [3] was 86%, the “MEAN CORPUSCULAR HEMOGLOBIN” value [3] was 24.03 pg and the “MEAN CORPUSCULAR HEMOGLOBIN CONCENTRATION” value [3] was 38 G/DL. The “MEAN CORPUSCULAR VOLUME” value [3] was 63.2 fL, the MONOCYTE [3] was 2% and the NEUTROPHIL [3] was 11%. The “NUCLEATED RED BLOOD CELLS” value [3] was 0.33 /100WBC, the “PLATELET COUNT” value [3] was 1244.67 x10E3/uL and the “ALANINE AMINOTRANSFERASE” value [3] was 51.33 u/L. For the same compound, the ALBUMIN [3] was 4.37 G/DL, the “ALKALINE PHOSPHATASE” value [3] was 431.67 u/L and the “ASPARTATE AMINOTRANSFERASE” value [3] was 102 u/L. For the same compound, the “BLOOD UREA NITROGEN” value [3] was 16.67 mg/dL, the “CARBON DIOXIDE” value [3] was 26.67 mmol/L and the CHLORIDE [3] was 102 MEQ/L. For the same compound, the CHOLESTEROL [3] was 79.67 mg/dL, the “CREATINE PHOSPHOKINASE” value [3] was 558.33 u/L and the CREATININE [3] was 0.23 mg/dL. The GLUCOSE [3] was 150.33 mg/dL, the “LACTATE DEHYDROGENASE” value [3] was 837 u/L and the LIPASE [3] was 9.33 u/L. For the same compound, the PHOSPHORUS [3] was 11.7 mg/dL, the POTASSIUM [3] was 6.65 MEQ/L and the SODIUM [3] was 144.07 MEQ/L. For the same compound, the “TOTAL BILIRUBIN” value [3] was 0.23 mg/dL, the “TOTAL PROTEIN” value [3] was 5.83 G/DL and the “URIC ACID” value [3] was 1.27 mg/dL.
